Data from patent publication US20230123334A1, “AMINO LIPID COMPOUND, PREPARATION METHOD THEREFOR, AND APPLICATION THEREOF” (SHENZHEN SHENXIN BIOTECHNOLOGY CO., LTD., priority 2020, published 2023).

These molecules were tested on HEK293 cells (assay: Preliminary screening as DNA vectors, GFP transfection of HEK293 cells). Settings: amino lipid/DOPE liposome with 75 ng plasmid DNA (psin-EGFP-IRES-Puro); number of GFP-expressing cells divided by total nuclei (Hoechst).
Assay type: cell-based
How it was run: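 HEK293 cells in DMEM/10% FBS transfected with 75 ng EGFP plasmid per well complexed with amino lipid/DOPE liposomes in pH 5.6 sodium acetate. Hoechst nuclear stain added 20-24 h post-transfection, then cells cultured another 20-24 h. Confocal imaging gives GFP-positive cells as % of total nuclei.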

Structure (SMILES) | Absolute DNA transfection efficiency in HEK293 cells
CCCCCCCCCCCSc1nc(NCCN2CCOCC2)nc(SCCCCCCC)n1 [S7S11 D2] | 27.3%
CCCCCCCCCCCSc1nc(NCCN2CCCC2)nc(SCCCCCCC)n1 [S7S11 D3] | 9.7%
CCCCCCCCCCCSc1nc(NCCN2CCCCC2)nc(SCCCCCCC)n1 [S7S11 D4] | 14.2%
CCCCCCCCCCCSc1nc(NCCN2CCN(C)CC2)nc(SCCCCCCC)n1 [S7S11 D5] | 32.4%
CCCCCCCCCCCSc1nc(NCCCN(C)C)nc(SCCCCCCC)n1 [S7S11 D6] | 28.7%
CCCCCCCCCCCSc1nc(NCCN(CC)CC)nc(SCCCCCCC)n1 [S7S11 D7] | 10.4%
CCCCCCCCCCCSc1nc(NCCCN2CCOCC2)nc(SCCCCCCC)n1 [S7S11 D8] | 11.1%
CCCCCCCCCCCSc1nc(NCCCN2CCN(C)CC2)nc(SCCCCCCC)n1 [S7S11 D9] | 25.9%
CCCCCCCCCCCSc1nc(NCC2CCN(C)CC2)nc(SCCCCCCC)n1 [S7S11 D10] | 39.1%
CCCCCCCCCCCCSc1nc(NCCN(C)C)nc(SCCCCCCC)n1 [S7S12 D1] | 8.2%
CCCCCCCCCCCCSc1nc(NCCN2CCOCC2)nc(SCCCCCCC)n1 [S7S12 D2] | 18.0%
CCCCCCCCCCCCSc1nc(NCCN2CCCC2)nc(SCCCCCCC)n1 [S7S12 D3] | 9.9%
CCCCCCCCCCCCSc1nc(NCCN2CCCCC2)nc(SCCCCCCC)n1 [S7S12 D4] | 9.5%
CCCCCCCCCCCCSc1nc(NCCN2CCN(C)CC2)nc(SCCCCCCC)n1 [S7S12 D5] | 9.6%
CCCCCCCCCCCCSc1nc(NCCCN(C)C)nc(SCCCCCCC)n1 [S7S12 D6] | 11.7%
CCCCCCCCCCCCSc1nc(NCCN(CC)CC)nc(SCCCCCCC)n1 [S7S12 D7] | 7.1%

Structure (SMILES) | Absolute DNA transfection efficiency in HEK293 cells
CCCCCCCCCCCCSc1nc(NCCCN2CCOCC2)nc(SCCCCCCC)n1 [S7S12 D8] | 10.9%
CCCCCCCCCCCCSc1nc(NCCCN2CCN(C)CC2)nc(SCCCCCCC)n1 [S7S12 D9] | 4.8%
CCCCCCCCCCCCSc1nc(NCC2CCN(C)CC2)nc(SCCCCCCC)n1 [S7S12 D10] | 21.3%
CCCCCCCCCCCCCCSc1nc(NCCN(C)C)nc(SCCCCCCC)n1 [S7S14 D1] | 7.7%
CCCCCCCCCCCCCCSc1nc(NCCN2CCOCC2)nc(SCCCCCCC)n1 [S7S14 D2] | 15.9%
CCCCCCCCCCCCCCSc1nc(NCCN2CCCC2)nc(SCCCCCCC)n1 [S7S14 D3] | 8.4%
CCCCCCCCCCCCCCSc1nc(NCCN2CCCCC2)nc(SCCCCCCC)n1 [S7S14 D4] | 9.1%
CCCCCCCCCCCCCCSc1nc(NCCN2CCN(C)CC2)nc(SCCCCCCC)n1 [S7S14 D5] | 10.7%
CCCCCCCCCCCCCCSc1nc(NCCCN(C)C)nc(SCCCCCCC)n1 [S7S14 D6] | 4.4%
CCCCCCCCCCCCCCSc1nc(NCCN(CC)CC)nc(SCCCCCCC)n1 [S7S14 D7] | 4.0%
CCCCCCCCCCCCCCSc1nc(NCCCN2CCOCC2)nc(SCCCCCCC)n1 [S7S14 D8] | 11.0%
CCCCCCCCCCCCCCSc1nc(NCCCN2CCN(C)CC2)nc(SCCCCCCC)n1 [S7S14 D9] | 3.8%
CCCCCCCCCCCCCCSc1nc(NCC2CCN(C)CC2)nc(SCCCCCCC)n1 [S7S14 D10] | 26.7%
CCCCCCCCCCCCCCCSc1nc(NCCN(C)C)nc(SCCCCCCC)n1 [S7S15 D1] | 9.4%
CCCCCCCCCCCCCCCSc1nc(NCCN2CCOCC2)nc(SCCCCCCC)n1 [S7S15 D2] | 24.0%
